We go through 17 compounds from US20240150300A1, “S-CONFIGURATION-CONTAINING AMINO BENZAMIDE PYRIDAZINONE COMPOUND, PREPARATION METHOD THEREFOR, AND PHARMACEUTICAL COMPOSITION AND APPLICATION THEREOF” (SHANGHAI INSTITUTE OF MATERIA MEDICA, CHINESE ACADEMY OF …, priority 2021, published 2024).

For one test, the system named is SKM-1 cells. The experiment in a line: Antiproliferative activity, CCK-8, SKM-1. In kind it is cell-based, human. The method, then: (§1) The tumor cells used were purchased from commercial cell banks (HCT116 purchased from ATCC, SKM 1 purchased from JCRB). The growth inhibition of cells was detected using the CCK-8 method. The specific steps were as follows. Cells in the logarithmic growth phase were seeded into a 96 well culture plate at an appropriate density, with 90 μL/well. After overnight cultivation, different concentrations of drugs were added for treatment for 72 h, with each concentration in triplicate, and corresponding concentration of vehicle control and cell-free blank wells were also set. After the treatment, 10 μL of CCK-8 was added to each well and the plate was incubated in an incubator for 2-4 hours, and the optical density (OD value) at a wavelength of 450 nm was measured using a SpectraMax 190 microplate reader. […] The experiment was repeated twice, and the mean value and SD were calculated.
With reference to HCT-116 cell proliferation inhibition test method, the inhibitory activity of the compounds on the proliferation of human myelodysplastic syndrome cell SKM-1 was tested.

A further test concerns the target HDAC6 (Homo sapiens (Human), UniProt Q9UBN7). As to the kind of experiment: In vitro histone deacetylase activity assay (HTRF), HDAC6. The class given is biochemical. As to conditions: H3(1-21) K9Ac biotin substrate. How it is done:
(§2) Human recombinant HDAC family proteins with His and GST tags were expressed using insect baculovirus expression system, and a biologically active HDAC family recombinant protein was obtained through Ni affinity column protein purification. HTRF detection method was used with H3(1-21) K9Ac biotin as the substrate. […] Briefly, 20 μl of the activity testing system included the HDAC substrate (0.2 μM. 4 μl), the Human Recombinant Protein HDAC (2-5 ng)/μl.
(In TR-FRET formats the signal depends on donor and acceptor labels being close together.)

A further test has as its target HDAC1 (Homo sapiens (Human), UniProt Q13547). The experiment in a line: In vitro histone deacetylase activity assay (HTRF), HDAC1. The class given is biochemical. As to conditions: H3(1-21) K9Ac biotin substrate. The method, then: as §2
For the next test, the system named is HCT-116 cells. The experiment in a line: Antiproliferative activity, CCK-8, HCT-116. The class given is cell-based, human. How it is done: as §1
A further test concerns the target HDAC10 (Homo sapiens (Human), UniProt Q969S8). As to the kind of experiment: HDAC subtype inhibitory activity (HTRF), HDAC10. The class given is biochemical. How it is done: as §2
The next test deals with HDAC2 (Homo sapiens (Human), UniProt Q92769). The experiment in a line: HDAC subtype inhibitory activity (HTRF), HDAC2. In kind it is biochemical. How it is done:
as §2

For a further test, the target named is HDAC8 (Homo sapiens (Human), UniProt Q9BY41). As to the kind of experiment: HDAC subtype inhibitory activity (HTRF), HDAC8. In kind it is biochemical. The method, then:
as §2

For another test, the target named is HDAC3 (Homo sapiens (Human), UniProt O15379). The experiment in a line: HDAC subtype inhibitory activity (HTRF), HDAC3. The class given is biochemical. How it is done:
as §2

Chain of HDAC1 (Q13547 whole entry): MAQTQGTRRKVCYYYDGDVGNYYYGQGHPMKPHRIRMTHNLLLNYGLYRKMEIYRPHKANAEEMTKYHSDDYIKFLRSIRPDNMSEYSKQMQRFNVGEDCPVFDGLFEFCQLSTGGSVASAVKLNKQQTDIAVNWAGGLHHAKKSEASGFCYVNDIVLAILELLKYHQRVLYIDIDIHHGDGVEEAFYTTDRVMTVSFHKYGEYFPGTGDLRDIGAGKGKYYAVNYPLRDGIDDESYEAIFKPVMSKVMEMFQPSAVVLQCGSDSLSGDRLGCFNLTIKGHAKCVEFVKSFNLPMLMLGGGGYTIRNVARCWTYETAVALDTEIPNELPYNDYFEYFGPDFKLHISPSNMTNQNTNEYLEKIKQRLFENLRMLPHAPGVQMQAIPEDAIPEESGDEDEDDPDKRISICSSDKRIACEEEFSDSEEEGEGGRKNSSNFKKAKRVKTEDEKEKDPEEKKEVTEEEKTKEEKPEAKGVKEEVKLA
Chain of HDAC6 (Q9UBN7 whole entry): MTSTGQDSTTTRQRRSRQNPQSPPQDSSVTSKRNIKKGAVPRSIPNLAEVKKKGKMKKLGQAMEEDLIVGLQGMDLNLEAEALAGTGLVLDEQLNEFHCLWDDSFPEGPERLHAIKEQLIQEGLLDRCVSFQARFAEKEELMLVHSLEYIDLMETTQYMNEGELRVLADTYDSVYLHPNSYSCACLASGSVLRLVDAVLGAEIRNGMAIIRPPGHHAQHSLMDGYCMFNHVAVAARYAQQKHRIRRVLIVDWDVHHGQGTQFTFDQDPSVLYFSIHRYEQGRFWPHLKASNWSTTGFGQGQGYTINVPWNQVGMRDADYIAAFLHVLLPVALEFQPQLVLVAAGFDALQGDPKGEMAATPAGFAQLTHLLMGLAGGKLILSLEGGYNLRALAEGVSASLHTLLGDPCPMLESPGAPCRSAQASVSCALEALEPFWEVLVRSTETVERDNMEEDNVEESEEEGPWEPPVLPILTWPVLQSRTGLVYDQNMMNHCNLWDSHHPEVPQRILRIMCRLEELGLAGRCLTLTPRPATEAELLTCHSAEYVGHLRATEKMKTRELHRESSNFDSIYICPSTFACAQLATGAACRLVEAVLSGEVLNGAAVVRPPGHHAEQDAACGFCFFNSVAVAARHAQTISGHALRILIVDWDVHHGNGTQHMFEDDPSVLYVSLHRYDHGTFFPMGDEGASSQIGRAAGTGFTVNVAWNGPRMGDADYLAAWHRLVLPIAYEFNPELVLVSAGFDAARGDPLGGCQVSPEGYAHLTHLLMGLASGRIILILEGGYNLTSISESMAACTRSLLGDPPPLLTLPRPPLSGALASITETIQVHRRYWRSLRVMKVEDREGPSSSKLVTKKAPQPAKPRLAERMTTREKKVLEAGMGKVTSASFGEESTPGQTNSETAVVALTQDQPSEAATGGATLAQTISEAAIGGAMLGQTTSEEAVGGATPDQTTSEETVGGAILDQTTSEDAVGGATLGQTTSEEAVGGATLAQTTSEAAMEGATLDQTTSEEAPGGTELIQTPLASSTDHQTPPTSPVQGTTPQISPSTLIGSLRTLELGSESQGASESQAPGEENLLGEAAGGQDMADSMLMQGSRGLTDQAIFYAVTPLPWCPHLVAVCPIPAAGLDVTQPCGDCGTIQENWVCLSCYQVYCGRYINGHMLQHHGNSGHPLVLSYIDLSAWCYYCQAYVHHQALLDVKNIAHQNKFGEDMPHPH
Chain of HDAC2 (Q92769 whole entry): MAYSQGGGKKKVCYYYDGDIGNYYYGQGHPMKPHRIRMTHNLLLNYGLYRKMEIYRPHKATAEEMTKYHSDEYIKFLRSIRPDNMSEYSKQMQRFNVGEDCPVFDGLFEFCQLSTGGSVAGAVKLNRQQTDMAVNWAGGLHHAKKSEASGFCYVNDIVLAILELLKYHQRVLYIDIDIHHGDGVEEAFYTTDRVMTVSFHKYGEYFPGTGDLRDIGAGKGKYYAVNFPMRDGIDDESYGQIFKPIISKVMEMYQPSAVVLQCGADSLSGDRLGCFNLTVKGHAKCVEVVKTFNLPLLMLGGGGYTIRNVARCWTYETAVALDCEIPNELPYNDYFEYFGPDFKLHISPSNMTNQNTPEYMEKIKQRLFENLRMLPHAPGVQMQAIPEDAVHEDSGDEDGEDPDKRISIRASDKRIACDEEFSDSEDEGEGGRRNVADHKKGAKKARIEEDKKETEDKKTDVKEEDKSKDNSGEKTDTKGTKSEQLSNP
Chain of HDAC10 (Q969S8 whole entry): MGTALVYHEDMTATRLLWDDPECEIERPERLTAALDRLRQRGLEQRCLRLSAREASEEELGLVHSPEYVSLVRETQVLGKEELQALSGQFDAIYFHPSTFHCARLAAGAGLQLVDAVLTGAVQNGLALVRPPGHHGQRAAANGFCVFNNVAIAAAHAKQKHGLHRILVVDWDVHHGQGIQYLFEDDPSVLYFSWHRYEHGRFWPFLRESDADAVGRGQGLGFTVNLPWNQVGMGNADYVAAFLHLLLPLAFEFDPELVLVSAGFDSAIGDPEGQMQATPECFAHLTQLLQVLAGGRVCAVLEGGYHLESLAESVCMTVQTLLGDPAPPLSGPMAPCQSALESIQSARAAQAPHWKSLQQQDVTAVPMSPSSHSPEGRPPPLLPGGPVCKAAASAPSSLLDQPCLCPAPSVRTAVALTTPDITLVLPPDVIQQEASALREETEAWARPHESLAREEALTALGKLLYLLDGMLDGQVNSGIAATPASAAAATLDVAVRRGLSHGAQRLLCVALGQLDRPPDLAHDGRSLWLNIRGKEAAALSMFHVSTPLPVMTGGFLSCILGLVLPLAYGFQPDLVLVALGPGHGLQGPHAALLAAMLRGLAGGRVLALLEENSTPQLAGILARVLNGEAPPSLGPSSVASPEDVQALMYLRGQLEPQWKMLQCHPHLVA
Chain of HDAC8 (Q9BY41 whole entry): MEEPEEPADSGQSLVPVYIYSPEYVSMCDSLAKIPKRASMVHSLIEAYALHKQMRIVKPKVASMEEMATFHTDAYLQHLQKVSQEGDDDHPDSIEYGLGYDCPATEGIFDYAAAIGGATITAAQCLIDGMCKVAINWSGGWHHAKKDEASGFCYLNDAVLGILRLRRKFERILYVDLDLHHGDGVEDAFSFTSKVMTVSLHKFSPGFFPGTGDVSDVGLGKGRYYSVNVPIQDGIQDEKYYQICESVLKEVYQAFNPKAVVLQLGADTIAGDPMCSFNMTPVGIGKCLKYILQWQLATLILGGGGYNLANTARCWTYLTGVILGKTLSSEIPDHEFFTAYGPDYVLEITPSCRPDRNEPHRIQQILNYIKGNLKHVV
Chain of HDAC3 (O15379 whole entry): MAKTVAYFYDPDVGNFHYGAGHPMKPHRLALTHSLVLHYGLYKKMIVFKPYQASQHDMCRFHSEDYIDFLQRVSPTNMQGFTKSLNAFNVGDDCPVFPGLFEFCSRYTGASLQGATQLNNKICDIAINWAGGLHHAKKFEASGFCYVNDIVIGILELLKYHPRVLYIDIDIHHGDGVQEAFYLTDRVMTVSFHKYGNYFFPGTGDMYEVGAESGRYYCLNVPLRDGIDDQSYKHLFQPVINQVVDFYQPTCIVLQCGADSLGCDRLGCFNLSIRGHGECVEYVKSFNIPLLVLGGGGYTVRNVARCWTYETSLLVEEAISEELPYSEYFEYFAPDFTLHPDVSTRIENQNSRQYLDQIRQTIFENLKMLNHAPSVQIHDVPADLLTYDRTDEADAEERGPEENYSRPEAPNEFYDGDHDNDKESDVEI
Chain of HDAC3 (Q9Y618 395-489 partner): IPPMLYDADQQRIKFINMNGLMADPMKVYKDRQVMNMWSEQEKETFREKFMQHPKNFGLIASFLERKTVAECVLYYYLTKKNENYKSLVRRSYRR

In the case of `C[C@@H](c1ccc(C(=O)Nc2ccccc2N)cc1)n1nc(-c2cnn(C)c2)ccc1=O` [Compound I-5], the IC50 (as a rule, the midpoint of a concentration-inhibition curve) was 200 ± 1 nM in the test with SKM-1 cells (Homo sapiens, SKM-1, 72 h); above 10000 nM against HDAC6; 124 ± 24.4 nM against HDAC1; 280 ± 8 nM in the test with HCT-116 cells (Homo sapiens, HCT-116, 72 h).
The matching figures for `C[C@@H](c1ccc(C(=O)Nc2cc(F)c(F)cc2N)cc1)n1nc(-c2ccc(CN(C)C)cc2)ccc1=O` [Compound I-7]: 210 ± 5 nM, above 10000 nM, 99.5 ± 11.1 nM and 310 ± 18 nM.
On to `CC(c1ccc(C(=O)Nc2ccccc2N)cc1)n1nc(-c2ccc(CN(C)C)cc2)ccc1=O` (racemic) [HYH-072 (racemate of I-2), reference compound], for which the IC50 with SKM-1 cells (Homo sapiens, SKM-1, 72 h) was determined as 90 ± 4 nM; in the test with HCT-116 cells (Homo sapiens, HCT-116, 72 h) it was 110 ± 7 nM.
In the case of `COc1ccc(N)c(NC(=O)c2ccc([C@H](C)n3nc(-c4ccc(CN(C)C)cc4)ccc3=O)cc2)c1` [Compound I-11], the IC50 in the test with SKM-1 cells (72 h) is 270 ± 19 nM; at HDAC6, above 10000 nM; at HDAC1 it was 42.4 ± 0.8 nM; in the test with HCT-116 cells (72 h), 310 ± 37 nM.
For `Nc1ccccc1NC(=O)c1ccc(CNC(=O)OCc2cccnc2)cc1` [MS-275, Entinostat, reference compound], the IC50 amounted to 390 nM with SKM-1 cells (Homo sapiens, SKM-1, 72 h) and 1480 ± 8 nM in the test with HCT-116 cells (Homo sapiens, HCT-116, 72 h).
As to `CC(c1ccc(C(=O)Nc2ccc(F)cc2N)cc1)n1nc(-c2ccc(CN(C)C)cc2)ccc1=O` (racemic) [HYH-073 (racemate of I-1), reference compound], the 50% inhibitory concentration (IC50) stood at 230 ± 10 nM with SKM-1 cells (Homo sapiens, SKM-1, 72 h) and 380 ± 1 nM with HCT-116 cells (Homo sapiens, HCT-116, 72 h).
In the case of `C[C@@H](c1ccc(C(=O)Nc2ccccc2N)cc1)n1nc(-c2ccc(CN(C)C)cc2)ccc1=O` [Compound I-2], the IC50 in the test on SKM-1 cells (Homo sapiens, SKM-1, 72 h) is 60 ± 1 nM; at HDAC10, above 100000 nM; on HDAC6, above 10000 nM; on HDAC1 it was 23.3 ± 1.1 nM; on HDAC2, 90 ± 2 nM; on HDAC8, above 100000 nM. The IC50 in the test on HCT-116 cells (Homo sapiens, HCT-116, 72 h) worked out at 80 ± 2 nM; on HDAC3, 390 ± 28 nM.
For `COc1cccc(-c2ccc(=O)n([C@@H](C)c3ccc(C(=O)Nc4ccccc4N)cc3)n2)c1` [Compound I-4], the IC50 in the test with SKM-1 cells (Homo sapiens, SKM-1, 72 h) is 160 ± 1 nM; against HDAC6 it was above 10000 nM; against HDAC1, 35.2 ± 4.47 nM; in the test on HCT-116 cells (Homo sapiens, HCT-116, 72 h) it was 230 ± 4 nM.
On to `C[C@@H](c1ccc(C(=O)Nc2ccccc2N)cc1)n1nc(-c2cccc(Cl)c2)ccc1=O` [Compound I-3], for which the IC50 was 270 ± 13 nM in the test with SKM-1 cells (Homo sapiens, SKM-1, 72 h); above 10000 nM at HDAC6; 52.4 ± 10.2 nM against HDAC1; 390 ± 6 nM in the test on HCT-116 cells (Homo sapiens, HCT-116, 72 h).
The matching figures for `C[C@@H](c1ccc(C(=O)Nc2cc(F)ccc2N)cc1)n1nc(-c2ccc(CN(C)C)cc2)ccc1=O` [Compound I-12]: 100 nM, above 10000 nM, 31.3 ± 3.27 nM and 140 ± 4 nM.
Regarding `Cc1ccc(N)c(NC(=O)c2ccc([C@H](C)n3nc(-c4ccc(CN(C)C)cc4)ccc3=O)cc2)c1` [Compound I-13], the IC50 in the test with SKM-1 cells (72 h) is 170 ± 2 nM; against HDAC6, above 10000 nM; against HDAC1 it was 44.8 ± 1.53 nM; with HCT-116 cells (72 h), 220 ± 24 nM.
For the compound `Nc1cc(F)ccc1NC(=O)c1ccc(CNC(=O)/C=C/c2cccnc2)cc1` [Chidamide, reference compound], the IC50 is 550 ± 4 nM in the test on SKM-1 cells (Homo sapiens, SKM-1, 72 h) and 1700 ± 105 nM in the test on HCT-116 cells (Homo sapiens, HCT-116, 72 h).
`C[C@H](c1ccc(C(=O)Nc2ccc(F)cc2N)cc1)n1nc(-c2ccc(CN(C)C)cc2)ccc1=O` [I-1 (R configuration), reference compound]: the IC50 with SKM-1 cells (72 h) is 1060 ± 79 nM; against HDAC10 it was above 100000 nM; at HDAC6, above 10000 nM; on HDAC1, 375 ± 42.1 nM; against HDAC2 it was 320 ± 48 nM; on HDAC8, above 100000 nM. Further, the values for the 50% inhibitory concentration (IC50) in the test on HCT-116 cells (72 h) and against HDAC3 were 1550 ± 94 nM and 720 ± 196 nM, respectively.
Regarding `C[C@@H](c1ccc(C(=O)Nc2cccc(F)c2N)cc1)n1nc(-c2ccc(CN(C)C)cc2)ccc1=O` [Compound I-9], the IC50 in the test on SKM-1 cells (Homo sapiens, SKM-1, 72 h) is 340 ± 13 nM; against HDAC6 it was above 10000 nM; at HDAC1, 122 ± 11.1 nM; with HCT-116 cells (Homo sapiens, HCT-116, 72 h), 500 ± 65 nM.
The matching figures for `COc1ccc(NC(=O)c2ccc([C@H](C)n3nc(-c4ccc(CN(C)C)cc4)ccc3=O)cc2)c(N)c1` [Compound I-8]: 490 ± 16 nM, above 10000 nM, 126 ± 18.3 nM and 870 ± 37 nM.
Turning to `C[C@@H](c1ccc(C(=O)Nc2ccccc2N)cc1)n1nc(-c2ccncc2)ccc1=O` [Compound I-6], the IC50 is 240 ± 11 nM in the test with SKM-1 cells (Homo sapiens, SKM-1, 72 h); above 10000 nM against HDAC6; 60.5 ± 5.73 nM against HDAC1; 330 ± 4 nM in the test on HCT-116 cells (Homo sapiens, HCT-116, 72 h).
Consider `C[C@@H](c1ccc(C(=O)Nc2ccccc2N)cc1)n1nc(-c2ccccc2)ccc1=O` [Compound I-10], for which the IC50 against HDAC6 was above 10000 nM; at HDAC1, 50.5 ± 13.7 nM; in the test on HCT-116 cells (Homo sapiens, HCT-116, 72 h), 400 ± 72 nM.
